Laboratory results taken from patent US9346746B2, “R(+)-N-formyl-propargyl-aminoindan” (Teva Pharmaceutical Industries, Ltd., priority 2011, dated 2016).
Where two headings read alike, the source gives them in different places.

How the values were obtained:
[1] = melt phase, Air
Experimental: Samples intended to degrade under an inert atmosphere were flushed with nitrogen for 5 minutes before closing with a stopper.
The samples were introduced into a pre-heated oven and held at a constant temperature of 78 and 90° C. for 24, 72 or 137 hrs. After completion of the treatment the samples were refrigerated and analyzed.

[2] = 1 mg/ml, air, Ethanol, 78 °C, 168 hrs
Experimental: The solutions were exposed to heating in oven under air atmosphere in amber glass vials closed with Teflon stoppers and covered with aluminum foil for protection from light. After completion of the treatment the samples were refrigerated at 2-8° C. and analyzed later using HPLC.

[3] = for R(+)-N-formyl-PAI, % of Rasagiline: 90° C., air, 1 mg/ml
Experimental: An additional series of degradation experiments was performed at 90° C. in order to achieve even higher degradation of Rasagiline in aqueous solutions.
For this series the treatment time was 1 and 2 weeks, and phosphate-citrate buffer (pH=2.6) and phosphate buffer (pH=8.0) were used.
The solutions were exposed to heat in an oven under an air atmosphere in amber glass vials closed with Teflon stoppers and covered with aluminum foil for protection from light.
The samples were introduced into an oven pre-heated to 90° C. and held at this temperature for 7 or 14 days. After completion of the treatment the samples were refrigerated at 2-8° C. and analyzed.

[4] = room temperature, initial peroxide 3%
Experimental: Then peroxide and water were added; complete dissolution of solid was achieved by shaking.
After holding at room temperature for 10 minutes to 20 hrs (oxidation time), the solutions were diluted with mobile phase and analyzed by HPLC.

[5] = RH=100%, room temperature, 7 days
[6] = in vivo; cited from earlier work

C#CCN[C@@H]1CCc2ccccc21 [Rasagiline base, R(+)-N-propargyl-1-aminoindan]
R(+)-N-formyl-PAI, % of Rasagiline ([1]; 78 deg. C., 24 hrs): 0.14 % of Rasagiline | R(+)-N-formyl-PAI, % of Rasagiline ([1]; 78 deg. C., 72 hrs): 0.10 % of Rasagiline | R(+)-N-formyl-PAI, % of Rasagiline ([1]; 90 deg. C., 24 hrs): 0.08 % of Rasagiline | R(+)-N-formyl-PAI, % of Rasagiline ([1]; 90 deg. C., 72 hrs): 0.07 % of Rasagiline | R(+)-N-formyl-PAI, % of Rasagiline ([1]; 90 deg. C., 137 hrs): 0.07 % of Rasagiline | R(+)-N-formyl-PAI, % of Rasagiline [2]: <0.04 % of Rasagiline | R(+)-N-formyl-PAI, % of Rasagiline ([3]; Acetate buffer pH = 4.1, 1 week): 0.05 % of Rasagiline | R(+)-N-formyl-PAI, % of Rasagiline ([3]; Phosphate buffer pH = 6.0, 1 week): 0.07 % of Rasagiline | R(+)-N-formyl-PAI, % of Rasagiline ([3]; Phosphate buffer pH = 6.0, 2 weeks): 0.16 % of Rasagiline | R(+)-N-formyl-PAI, % of Rasagiline ([3]; Phosphate buffer pH = 8.0, 1 week): 0.22 % of Rasagiline | R(+)-N-formyl-PAI, % of Rasagiline ([3]; Phosphate buffer pH = 8.0, 2 weeks): 0.19 % of Rasagiline | R(+)-N-formyl-PAI, % of Rasagiline ([3]; Phosphate-citrate buffer 3.6, 1 week): 0.13 % of Rasagiline | R(+)-N-formyl-PAI, % of Rasagiline ([3]; Phosphate-citrate buffer 3.6, 2 weeks): 0.11 % of Rasagiline | R(+)-N-formyl-PAI, % of Rasagiline ([3]; Phosphate-citrate buffer pH = 2.6, 1 week): 0.17 % of Rasagiline | R(+)-N-formyl-PAI, % of Rasagiline ([3]; Phosphate-citrate buffer pH = 2.6, 2 weeks): 0.26 % of Rasagiline | R(+)-N-formyl-PAI found in the solutions ([3]; aqueous solutions at 90° C., summary statement): above 0.1 % area of Rasagiline | R(+)-N-formyl-PAI, % of Rasagiline ([4]; oxidation time 5:00 hr:min): 0.17 % of Rasagiline | R(+)-N-formyl-PAI, % of Rasagiline ([4]; oxidation time 20:00 hr:min): 0.23 % of Rasagiline | R(+)-N-formyl-PAI after humidity stress [5]: not detected | absolute bioavailability [6]: about 36%
